Results published in patent US20260327263A1, “Anti-Bacterial Peptides” (priority 2023, published 2026).
Where no end group is shown, it is not given here.

System: human keratinocytes (HaCaT)
Test: Cell proliferation assay, HaCaT keratinocytes
Assay type: cell-based
Method: Wound closure was compared with the untreated samples (circle, red highlight). For improved clarity, error bars have been omitted from this representation. […] Each value is the mean±SD (n=3). Statistical significance was assessed using ANOVA for multiple comparisons (Dunnett's multiple comparisons test). **** p<0.0001, *** p<0.001, ** p<0.01, *p<0.05, ns denotes nonsignificance, p >0.05.
CyQUANT™ Direct Cell Proliferation Assay (ThermoFisher Scientific, Catalogue) was performed as per manufacturer's instructions to determine the safety of the peptides to human keratinocytes. […] The fluorescence intensity and number of stained cells were determined using the LionHeart FX Automated Microscope (BioTek, VT, USA).

KKLLKKWLKLSKKALKLALSL-NH2 [V8LQ19L]
Cytotoxicity at high concentration (100 μM) (100 μM, cell line not named in Table 15): Non-cytotoxic | cytotoxicity to HaCaT (24 h, up to highest tested concentrations (peptide), 3% (H2O2)): noncytotoxic
